The source of these data is patent US11291655B2, “RAD51 inhibitors” (Cyteir Therapeutics, Inc., priority 2017, dated 2022).

SMILES strings stand for the structures.

For the assay, the system named is Daudi Cell Culture. The assay is described as follows: Compound primary screening in Daudi cell culture. The class given is cell-based. Conditions: Homo sapiens, 168 h; Daudi cells, 1250 cells per well, reads on Day 7. In a few lines: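 Daudi cells seeded at 1250 cells per well in 130 ul medium at 37° C. and treated with serially diluted compounds added from a media master plate; read on Day 7.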

As a reminder, the EC50 is the concentration at which the effect is half-maximal. A high value points to a less potent agent. Compound `CC(C)OC(=O)Nc1ccc(-c2ncc(-c3cc(NC(=O)OCc4ccccc4)ccc3S(=O)(=O)NC(C)(C)C)s2)cc1` [Compound K2] came in with an EC50 of more than 10 µM.

Regarding `CC(C)NC(=S)Nc1ccc(-c2ncc(-c3ccc(NC(=O)OCc4ccccc4)cc3S(=O)(=O)NC(C)(C)C)s2)cc1` [Compound L4], the EC50 was more than 10 µM.

In turn, `CCOC(=O)Nc1ccc(-c2cnc(-c3ccc(NC(=S)NC(C)C)cc3)s2)c(S(=O)(=O)NC(C)(C)C)c1` [Compound L5] came in with an EC50 of less than 5 µM.

Consider `CC(C)NC(=S)Nc1ccc(-c2ncc(-c3ccc(NC(=O)c4ccccc4)cc3S(=O)(=O)NC(C)(C)C)s2)cc1` [Compound L6], for which the EC50 is less than 5 µM.

Regarding `COC(=O)Nc1ccc(-c2cnc(-c3ccc(NC(=S)NC(C)C)cc3)s2)c(S(=O)(=O)NC(C)(C)C)c1` [Compound L7], the EC50 was more than 10 µM.

`CC(C)OC(=O)Nc1ccc(-c2ncc(-c3ccc(NC(=S)NCc4ccccc4)cc3S(=O)(=O)NC(C)(C)C)s2)cc1` [Compound L8] came in with an EC50 of less than 1 µM.

For `CC(=O)Nc1ccc(-c2cnc(-c3ccc(NC(=S)NCc4ccccc4)cc3)s2)c(S(=O)(=O)NC(C)(C)C)c1` [Compound L9], the EC50 was less than 5 µM.

In the case of `CC(C)NC(=S)Nc1ccc(-c2ncc(-c3ccc(NC(=O)NCc4ccccc4)cc3S(=O)(=O)NC(C)(C)C)s2)cc1` [Compound L10], the EC50 was less than 5 µM.

`CC(C)NC(=S)Nc1ccc(-c2ncc(-c3ccc(NC(=O)N(C)Cc4ccccc4)cc3S(=O)(=O)NC(C)(C)C)s2)cc1` [Compound M1] returned an EC50 of more than 10 µM.

`CC(C)NC(=S)Nc1ccc(-c2ncc(-c3ccc(NC(=O)NCc4ccncc4)cc3S(=O)(=O)NC(C)(C)C)s2)cc1` [Compound M2] registered an EC50 of less than 5 µM.

For `CC(C)NC(=S)Nc1ccc(-c2ncc(-c3ccc(NC(=O)NCc4cccnc4)cc3S(=O)(=O)NC(C)(C)C)s2)cc1` [Compound M3], the EC50 was less than 10 µM.

Regarding `CC(C)NC(=S)Nc1ccc(-c2ncc(-c3ccc(NC(=O)NCc4ccccn4)cc3S(=O)(=O)NC(C)(C)C)s2)cc1` [Compound M4], the EC50 is less than 10 µM.

In turn, `CC(C)NC(=S)Nc1ccc(-c2ncc(-c3ccc(NC(=O)NCc4cncnc4)cc3S(=O)(=O)NC(C)(C)C)s2)cc1` [Compound M5] yielded an EC50 of more than 10 µM.

With `CC(C)NC(=S)Nc1ccc(-c2ncc(-c3ccc(NC(=O)NCc4nccs4)cc3S(=O)(=O)NC(C)(C)C)s2)cc1` [Compound M6], the EC50 is more than 10 µM.

Compound `CC(C)NC(=S)Nc1ccc(-c2ncc(-c3ccc(NC(=O)NC(C)c4ccccc4)cc3S(=O)(=O)NC(C)(C)C)s2)cc1` (stereo not drawn) [Compound M7] came in with an EC50 of less than 10 µM.

`CC(C)NC(=S)Nc1ccc(-c2ncc(-c3ccc(NC(=O)OC(C)c4ccccc4)cc3S(=O)(=O)NC(C)(C)C)s2)cc1` (stereo not drawn) [Compound M8] gave an EC50 of less than 10 µM.

`CC(C)NC(=S)Nc1ccc(-c2ncc(-c3ccc(NC(=O)NCc4ccc(O)cc4)cc3S(=O)(=O)NC(C)(C)C)s2)cc1` [Compound N1, N-(tert-butyl)-5-(3-(4-hydroxybenzyl)ureido)-2-(2-(4-(3-isopropylthioureido)phenyl)thiazol-5-yl)benzenesulfonamide] yielded an EC50 of less than 10 µM.

`CC(C)NC(=S)Nc1ccc(-c2ncc(-c3ccc(NC(=O)NCc4cccc(O)c4)cc3S(=O)(=O)NC(C)(C)C)s2)cc1` [Compound N2] displayed an EC50 of less than 10 µM.

In the case of `CC(C)NC(=S)Nc1ccc(-c2ncc(-c3ccc(NC(=O)NCc4cn[nH]c4)cc3S(=O)(=O)NC(C)(C)C)s2)cc1` [Compound N4], the EC50 is more than 10 µM.

Compound `CC(C)NC(=S)Nc1ccc(-c2ncc(-c3ccc(NC(=O)NCc4ncc[nH]4)cc3S(=O)(=O)NC(C)(C)C)s2)cc1` [Compound N5] registered an EC50 of more than 10 µM.

`CC(C)NC(=S)Nc1ccc(-c2ncc(-c3ccc(NC(=O)NCc4cnc[nH]4)cc3S(=O)(=O)NC(C)(C)C)s2)cc1` [Compound N6] returned an EC50 of less than 10 µM.

`CC(C)OC(=O)Nc1ccc(-c2ncc(-c3ccc(CNC(=O)C4CCNCC4)cc3S(=O)(=O)NC(C)(C)C)s2)cc1` [Compound O1]: the EC50 was less than 10 µM.

Turning to `COCCC(=O)NCc1ccc(-c2cnc(-c3ccc(NC(=O)OC(C)C)cc3)s2)c(S(=O)(=O)NC(C)(C)C)c1` [Compound O2], the EC50 is more than 10 µM.

Consider `CC(C)OC(=O)Nc1ccc(-c2ncc(-c3ccc(CNC(=O)CCO)cc3S(=O)(=O)NC(C)(C)C)s2)cc1` [Compound O3], for which the EC50 is more than 10 µM.

`CC(C)OC(=O)Nc1ccc(-c2ncc(-c3ccc(CNC(=O)Cc4ccccc4)cc3S(=O)(=O)NC(C)(C)C)s2)cc1` [Compound O4]: the EC50 is less than 10 µM.

`CC(C)OC(=O)Nc1ccc(-c2ncc(-c3ccc(CNC(=O)Cc4ccncc4)cc3S(=O)(=O)NC(C)(C)C)s2)cc1` [Compound O5] yielded an EC50 of less than 5 µM.

`CC(C)OC(=O)Nc1ccc(-c2ncc(-c3ccc(CNC(=O)Cc4cccnc4)cc3S(=O)(=O)NC(C)(C)C)s2)cc1` [Compound O6] returned an EC50 of more than 10 µM.

`CC(C)OC(=O)Nc1ccc(-c2ncc(-c3ccc(CNC(=O)c4ccncc4)cc3S(=O)(=O)NC(C)(C)C)s2)cc1` [Compound O7] yielded an EC50 of less than 5 µM.

Take `CC(C)OC(=O)Nc1ccc(-c2ncc(-c3ccc(CNC(=O)c4cncnc4)cc3S(=O)(=O)NC(C)(C)C)s2)cc1` [Compound O8]: the EC50 was less than 10 µM.

In turn, `CCC(=O)NCc1ccc(-c2cnc(-c3ccc(NC(=O)OC(C)C)cc3)s2)c(S(=O)(=O)NC(C)(C)C)c1` [Compound P1] yielded an EC50 of less than 10 µM.

In turn, `CC(C)OC(=O)Nc1ccc(-c2ncc(-c3ccc(CNC(=O)C(C)C)cc3S(=O)(=O)NC(C)(C)C)s2)cc1` [Compound P2] showed an EC50 of less than 5 µM.

As for `CC(C)OC(=O)Nc1ccc(-c2ncc(-c3ccc(CNC(=O)C(C)(C)C)cc3S(=O)(=O)NC(C)(C)C)s2)cc1` [Compound P3], the EC50 is more than 10 µM.

In the case of `CC(C)OC(=O)Nc1ccc(-c2ncc(-c3ccc(CNC(=O)c4ccccc4)cc3S(=O)(=O)NC(C)(C)C)s2)cc1` [Compound P4], the EC50 is more than 10 µM.

`CC(C)OC(=O)Nc1ccc(-c2ncc(-c3ccc(CNS(C)(=O)=O)cc3S(=O)(=O)NC(C)(C)C)s2)cc1` [Compound P5]: the EC50 is less than 10 µM.

Regarding `CC(C)OC(=O)Nc1ccc(-c2ncc(-c3ccc(CNS(=O)(=O)c4ccccc4)cc3S(=O)(=O)NC(C)(C)C)s2)cc1` [Compound P6], the EC50 is less than 10 µM.

`COC(=O)NCc1ccc(-c2cnc(-c3ccc(NC(=O)OC(C)C)cc3)s2)c(S(=O)(=O)NC(C)(C)C)c1` [Compound P7]: the EC50 was less than 10 µM.

`CCOC(=O)NCc1ccc(-c2cnc(-c3ccc(NC(=O)OC(C)C)cc3)s2)c(S(=O)(=O)NC(C)(C)C)c1` [Compound P8] had an EC50 of less than 10 µM.

With `CC(C)OC(=O)NCc1ccc(-c2cnc(-c3ccc(NC(=O)OC(C)C)cc3)s2)c(S(=O)(=O)NC(C)(C)C)c1` [Compound P9], the EC50 is more than 10 µM.

`CC(=O)NCc1ccc(-c2cnc(-c3ccc(NC(=O)OC(C)C)cc3)s2)c(S(=O)(=O)NC(C)(C)C)c1` [Compound Q1, isopropyl N-[4-[5-[4-(acetamidomethyl)-2-(tert-butylsulfamoyl)phenyl]thiazol-2-yl]phenyl]carbamate] showed an EC50 of less than 10 µM.

`CC(C)OC(=O)Nc1ccc(-c2ncc(-c3ccc(CNC(=O)OCc4ccccc4)cc3S(=O)(=O)NC(C)(C)C)s2)cc1` [Compound Q2, isopropyl N-[4-[5-[4-(benzyloxycarbonylaminomethyl)-2-(tert-butylsulfamoyl)phenyl]thiazol-2-yl]phenyl]carbamate] came in with an EC50 of more than 10 µM.

Take `CC(C)NC(=S)Nc1ccc(-c2ncc(-c3ccc(N(C)C(=O)NCc4ccccc4)cc3S(=O)(=O)NC(C)(C)C)s2)cc1` [Compound Q3]: the EC50 is less than 1 µM.

`CC(C)NC(=S)Nc1ccc(-c2ncc(-c3ccc(N(C)C(=O)N(C)Cc4ccccc4)cc3S(=O)(=O)NC(C)(C)C)s2)cc1` [Compound Q4] returned an EC50 of less than 1 µM.

Take `Cc1cc(NC(=O)OC(C)C)ccc1-c1ncc(-c2ccc(NC(=O)OC(C)C)cc2S(=O)(=O)NC(C)(C)C)s1` [Compound R1]: the EC50 is less than 1 µM.

Consider `COc1cc(-c2ncc(-c3ccc(NC(=O)OC(C)C)cc3S(=O)(=O)NC(C)(C)C)s2)ccc1NC(=O)OC(C)C` [Compound R3], for which the EC50 was less than 5 µM.

In turn, `COc1cc(-c2ncc(-c3ccc(NC(=O)OCc4ccccc4)cc3S(=O)(=O)NC(C)(C)C)s2)ccc1NC(=O)OC(C)C` [Compound R7] gave an EC50 of less than 1 µM.
